Here are results for 29 molecules from patent US9908890B2, “Selective inhibitors of constitutive androstane receptor” (ST. JUDE CHILDREN'S RESEARCH HOSPITAL, priority 2014, dated 2018).

The experiment addresses T1, GST-hCAR-LBD (Homo sapiens, UniProt Q14994).
T1 construct: purchased Life Technologies (Carlsbad, Calif.) or Invitrogen (Carlsbad, Calif.)
T1 sequence (Q14994 109-352 limits assumed): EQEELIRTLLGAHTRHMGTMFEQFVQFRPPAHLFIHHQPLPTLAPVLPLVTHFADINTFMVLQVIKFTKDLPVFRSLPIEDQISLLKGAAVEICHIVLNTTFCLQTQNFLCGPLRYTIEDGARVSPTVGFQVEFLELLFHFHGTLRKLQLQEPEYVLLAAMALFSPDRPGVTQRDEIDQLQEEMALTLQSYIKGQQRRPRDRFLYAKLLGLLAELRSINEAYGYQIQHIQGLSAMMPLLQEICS
Briefly: CoAct binding inverse agonist assay (LanthaScreen TR-FRET, fluorescent PGC-1α coactivator recruitment/repression). Type of experiment: biochemical. To be noted: for inhibition at 70 µM: read-out: % Inhibition (70 μM); for fold increase of IC50 (decrease of activity) relative to lead chemical 1 (CINPA1) / fold increase of CAR inverse agonistic activity (potency) over lead chemical 1 (CINPA1): relative to chemical 1. On the procedure: The effect of putative CAR ligands on the recruitment or repression of PGC-1α binding to hCAR was evaluated by using a LanthaScreen TR-FRET assay according to the manufacturer's instructions. […] The final DMSO concentration was 0.7% in all assay wells. […] The % Inhibition values were then plotted for individual chemicals. When applicable, the graphic software GraphPad Prism 5.04 (GraphPad Software, La Jolla, Calif., USA) was used to fit the data into a one-site competitive-binding equation to derive IC50 values. […] The assay plates were then briefly spun down and incubated for 1 hour at room temperature (25° C.). […] The final DMSO concentration was 0.7% in all assay wells. […] The % Inhibition values were then plotted for individual chemicals. When applicable, the graphic software GraphPad Prism 5.04 (GraphPad Software, La Jolla, Calif., USA) was used to fit the data into a one-site competitive-binding equation to derive IC50 values.

The mark [1] stands for this setting: 70 μM compound, 42 μM clotrimazole = 100%, DMSO = 0%.
Setting [2] is: read-out: IC50 (CAR inverse agonistic activity).

Where “and” joins values, the source holds several entries; their conditions need not be identical. Equal values may be shown once. Read-outs that look alike come from different tables or passages of the source.

As usually defined, the inhibition is the drop in the measured response relative to a control, in per cent. By IC50 is commonly meant the point on the concentration scale where inhibition reaches its midpoint. For the molecule `CCOC(=O)Nc1ccc2c(c1)N(C(=O)CCN(CC)CC)c1ccccc1CC2` [Compound 22, ethyl (5-(3-(diethylamino)propanoyl)-10,11-dihydro-5H-dibenzo[b,f]azepin-3-yl)carbamate], the “fold increase of IC50 (decrease of activity) relative to lead chemical 1 (CINPA1)” value was determined as 3.5 fold. Also, the inhibition at 70 µM under setting [1] came to 119%. For the same molecule, the IC50 under setting [2] was 2430 nM.
Take `O=C(Nc1ccc2c(c1)N(C(=O)Cn1cccc1)c1ccccc1CC2)OC1CCCC1` [Compound 43, cyclopentyl (5-(2-(1H-pyrrol-1-yl)acetyl)-10,11-dihydro-5H-dibenzo[b,f]azepin-3-yl)carbamate]: the IC50 under setting [2] amounted to 14 nM.
`CCOC(=O)Nc1ccc2c(c1)N(C(=O)CN(CC)CC)c1ccccc1CC2` [Compound 70]: the “% Inhibition (70 μM)” value under setting [1] was 104.8%. The IC50 (Table 4, read-out: IC50) was 620 nM.
With `CCOC(=O)Nc1ccc2c(c1)N(C(=O)COC(C)(C)C)c1ccccc1CC2` [Compound 19, ethyl (5-(2-(tert-butoxy)acetyl)-10,11-dihydro-5H-dibenzo[b,f]azepin-3-yl)carbamate], the “fold increase of CAR inverse agonistic activity (potency) over lead chemical 1 (CINPA1)” value (shortened to “fold increase … over lead chemical 1 (CINPA1)”) came out at 9.7 fold. Further, the inhibition at 70 µM under setting [1] was 120%. Also, the 50% inhibitory concentration (IC50) under setting [2] turned out to be 71 nM.
For `CC(C)OC(=O)Nc1ccc2c(c1)N(C(=O)Cn1cccc1)c1ccccc1CC2` [Compound 26, isopropyl (5-(2-(1H-pyrrol-1-yl)acetyl)-10,11-dihydro-5H-dibenzo[b,f]azepin-3-yl)carbamate], the “fold increase … over lead chemical 1 (CINPA1)” value was found to be 32.8 fold. Moreover, under setting [2], the concentration for half-maximal inhibition (IC50) was 21 nM and 22 nM.
As to `CCOC(=O)Nc1ccc2c(c1)N(C(=O)CN1CCOCC1)c1ccccc1CC2` [compound 80], the “fold increase … over lead chemical 1 (CINPA1)” value is given as “about 3 fold”. Under setting [2], the half-inhibitory concentration (IC50) is 240 nM and 235 nM.
Regarding `O=C(Nc1ccc2c(c1)N(C(=O)OC1CCCC1)c1ccccc1CC2)OC1CCCCC1` [Compound 60], the IC50 (Table 4, read-out: IC50) stood at 17 nM.
For the molecule `CCOC(=O)Nc1ccc2c(c1)N(C(=O)CNC(C)(C)CC)c1ccccc1CC2` [Compound 21, ethyl (5-(tert-pentylglycyl)-10,11-dihydro-5H-dibenzo[b,f]azepin-3-yl)carbamate], the “fold increase of IC50 (decrease of activity) relative to lead chemical 1 (CINPA1)” value is 3 fold. Further, the inhibition at 70 µM under setting [1] came out at 116%. In addition, the concentration for half-maximal inhibition (IC50) under setting [2] was determined as 2060 nM.
`CC(C)OC(=O)Nc1ccc2c(c1)N(C(=O)Cc1ccco1)c1ccccc1CC2` [Compound 63]: under “Table 4, read-out: IC50”, the IC50 amounted to 37 nM.
Consider `CCC(C)OCC(=O)N1c2ccccc2CCc2ccc(NC(=O)OC(C)C)cc21` (stereo not drawn) [Compound 31, isopropyl (5-(2-(sec-butoxy)acetyl)-10,11-dihydro-5H-dibenzo[b,f]azepin-3-yl)carbamate], for which the IC50 under setting [2] was found to be 35 nM.
In the case of `CCOC(=O)Nc1ccc2c(c1)N(C(=O)CN(CC)CC)c1ccccc1CC2` [1 (CINPA1)], where the note is “Table 6, CINPA1 and commercially available analogs, read-out: IC50”, the half-maximal inhibitory concentration (IC50) is 690 nM.
Consider `CCOC(=O)Nc1ccc2c(c1)N(C(=O)CNC(C)(C)C)c1ccccc1CC2` [compound 83], for which the “fold increase of IC50 (decrease of activity) relative to lead chemical 1 (CINPA1)” value is 5 fold. Moreover, the IC50 under setting [2] is 3630 nM.
As for `O=C(Nc1ccc2c(c1)N(C(=O)Cn1cccc1)c1ccccc1CC2)N1CCCC1` [Compound 45], the 50% inhibitory concentration (IC50) (Table 4, read-out: IC50) was found to be 280 nM.
Consider `O=C(Nc1ccc2c(c1)N(C(=O)Cn1cccc1)c1ccccc1CC2)OC1CC1` [Compound 41, cyclopropyl (5-(2-(1H-pyrrol-1-yl)acetyl)-10,11-dihydro-5H-dibenzo[b,f]azepin-3-yl)carbamate], for which, under setting [2], the IC50 came to 22 nM.
`CCOC(=O)Nc1ccc2c(c1)N(C(=O)Cn1ccnc1)c1ccccc1CC2` [Compound 17, ethyl (5-(2-(1H-imidazol-1-yl)acetyl)-10,11-dihydro-5H-dibenzo[b,f]azepin-3-yl)carbamate]: the inhibition at 70 µM under setting [1] was found to be 101%. The IC50 under setting [2] was 6890 nM. Moreover, the “fold IC50 relative to chemical 16” value (relative to chemical 16) was determined as 186 fold.
As for `CCOC(=O)Nc1ccc2c(c1)N(C(=O)CCN1CCCC1)c1ccccc1CC2` [Compound 23], the inhibition at 70 µM was 118%. The IC50 under setting [2] is 3180 nM.
Take `CCOC(=O)Nc1ccc2c(c1)N(C(=O)CCN1CCOCC1)c1ccccc1CC2` [compound 85]: under setting [2], the IC50 came out at 320 nM.
As to `CCOC(=O)Nc1ccc2c(c1)N(C(=O)CN1[C@H]3CC[C@@H]1CC3)c1ccccc1CC2` [Compound 20, ethyl (5-(2-((1s,4s)-7-azabicyclo[2.2.1]heptan-7-yl)acetyl)-10,11-dihydro-5H-dibenzo[b,f]azepin-3-yl)carbamate], under setting [1], the inhibition at 70 µM was 118%.
`O=C(Cn1cccc1)N1c2ccccc2CCc2ccc(NC(=O)n3cccc3)cc21` [Compound 46]: the half-inhibitory concentration (IC50) (Table 4, read-out: IC50) amounted to 81 nM.
Regarding `CC(C)OC(=O)Nc1ccc2c(c1)N(C(=O)Cc1cccs1)c1ccccc1CC2` [Compound 62], under “Table 4, read-out: IC50”, the concentration for half-maximal inhibition (IC50) stood at 21 nM.
In the case of `CCN(CC)CC(=O)N1c2ccccc2CCc2ccc(NC(=O)C(C)(C)C)cc21` [Compound 4, N-(5-(diethylglycyl)-10,11-dihydro-5H-dibenzo[b,f]azepin-3-yl)pivalamide], the inhibition at 70 µM under setting [1] worked out at 113%. In addition, the 50% inhibitory concentration (IC50) under setting [2] was 1030 nM.
On to `CCOC(=O)Nc1ccc2c(c1)N(C(=O)CN1C(=O)C=CC1=O)c1ccccc1CC2` [Compound 15, ethyl (5-(2-(2,5-dioxo-2,5-dihydro-1H-pyrrol-1-yl)acetyl)-10,11-dihydro-5H-dibenzo[b,f]azepin-3-yl)carbamate], for which the inhibition at 70 µM under setting [1] is 76%. Moreover, the concentration for half-maximal inhibition (IC50) under setting [2] was found to be 39800 nM. Further, the “fold IC50 relative to chemical 13” value (relative to chemical 13) was 25 fold.
For the molecule `CCOC(=O)Nc1ccc2c(c1)N(C(=O)CN1CCN(C)CC1)c1ccccc1CC2` [compound 81], the “fold increase of IC50 (decrease of activity) relative to lead chemical 1 (CINPA1)” value is 56 fold. Besides, the concentration for half-maximal inhibition (IC50) under setting [2] was found to be 38800 nM.
For the molecule `CCOC(=O)Nc1ccc2c(c1)N(C(=O)CCN(C)C)c1ccccc1CC2` [compound 86], the IC50 under setting [2] amounted to 5010 nM.
Turning to `O=C(Nc1ccc2c(c1)N(C(=O)Cn1cccc1)c1ccccc1CC2)N1CCCCC1` [Compound 47], under “Table 4, read-out: IC50”, the 50% inhibitory concentration (IC50) was 99 nM.
On to `CCOC(=O)Nc1ccc2c(c1)N(C(=O)CN1CCCCC1)c1ccccc1CC2` [Compound 18, ethyl (5-(2-(piperidin-1-yl)acetyl)-10,11-dihydro-5H-dibenzo[b,f]azepin-3-yl)carbamate], for which, under setting [1], the inhibition at 70 µM worked out at 119%. In addition, under setting [2], the IC50 was determined as 620 nM.
On to `CC(C)OC(=O)Nc1ccc2c(c1)N(C(=O)COCC(C)(C)C)c1ccccc1CC2` [Compound 32, isopropyl (5-(2-(neopentyloxy)acetyl)-10,11-dihydro-5H-dibenzo[b,f]azepin-3-yl)carbamate], for which the IC50 under setting [2] was determined as 21 nM.
On to `CC(C)OC(=O)Nc1ccc2c(c1)N(C(=O)COC1CCC1)c1ccccc1CC2` [Compound 34, isopropyl (5-(2-cyclobutoxyacetyl)-10,11-dihydro-5H-dibenzo[b,f]azepin-3-yl)carbamate], for which the concentration for half-maximal inhibition (IC50) under setting [2] stood at 38 nM.
Consider `CCN(CC)CC(=O)N1c2ccccc2CCc2ccc(NC(=O)NC(C)C)cc21` [Compound 6, 1-(5-(diethylglycyl)-10,11-dihydro-5H-dibenzo[b,f]azepin-3-yl)-3-isopropylurea], for which the inhibition at 70 µM under setting [1] was found to be 107%. The 50% inhibitory concentration (IC50) under setting [2] was found to be 4930 nM.
